Tests used:
Format in all cases: cell-based, human
[1] = system: iPSC-derived cardiomyocytes; experiment: Protein expression of cardiac markers in iPSC-CMs, 3D suspension culture, FOXO/FOXM1 modulators; settings: for protein expression of TNNI3 / protein expression of TNNT2: 3D suspension culture
Excerpt: (§1) FOXO activation with LOM612 enhances protein (FIG. 19B) but not RNA expression of Kir2.1 (FIG. 19A). FOXO activation increases the upstroke velocity (spike slope) (FIG. 19C).
(§2) Cell lines used included UCSD142i-86-1 iPSC line (WiCell), Gibco human episomal iPSC line (Thermo), and DiPS 1016SevA iPSC line (Harvard. Cardiomyocytes are obtained utilizing a differential protocol adapted from Lian et al. Nat Protoc 2013: 8 (1): 162-75 (FIG. 16A). The differentiation protocol may be modified utilizing modulators of FOXO and FOXM1 (FIG. 16B). Cardiomyocytes may be characterized as being contractility mature, metabolically mature, or electrophysiologically mature (FIG. 16C).

[2] = system: iPSC-derived cardiomyocytes; experiment: Contractile and electrophysiological properties by multielectrode array analysis, FOXO/FOXM1 modulators; settings: for contractility: iPSC-derived cardiomyocytes
Excerpt: as §2
The contractile properties of cardiomyocytes improved with FOXO activation. FOXO activation with LOM612 or FOXM1 inhibition with RCM-1 increases protein expression of cardiac troponin T (TNNT2) and increases mean beat amplitude by multielectrode array analysis (FIG. 17). […] AS1842856 may be applied in an amount of about 0.2 to 1 μM.
(§3) FOXO activation improved electrophysiological properties of PSC-CMs. FOXO activation with LOM612 enhances protein, but not RNA expression of Kir2.1 (FIGS. 19A-19B). FOXO activation increases the upstroke velocity (spike slope) (FIG. 19C).

[3] = system: PSC-CMs; experiment: Oxygen consumption rate and respiratory reserve capacity of PSC-CMs
Excerpt: FOXO activation with LOM612 (FIG. 18A) or FOXM1 inhibition with RCM-1 (FIG. 18B) increases maximum oxygen consumption rate (OCR) and respiratory reserve capacity, while inhibition of FOXO with AS1842856 (FIG. 18C) inhibits maximum OCR and respiratory reserve capacity.
In some embodiments, the cardiomyocytes are metabolically mature cardiomyocytes. In some aspects, a cardiomyocyte has increased metabolic activity as compared to an immature cardiomyocyte. In some embodiments, a cardiomyocyte has increased oxygen consumption and/or extracellular acidification rate as compared to immature cardiomyocytes. In some embodiments, a cardiomyocyte has increased respiratory reserve as compared to immature cardiomyocytes. Metabolic maturity may be quantified using a Seahorse mito stress metabolic assay (Agilent). The assay may be used to measure oxygen consumption rate and extracellular acidification rate in response to one or more compounds (e.g., small molecule compounds) that affect mitochondrial function.
FOXO activation with LOM612 or FOXM1 inhibition with RCM-1 increases maximum oxygen consumption rate (OCR) and respiratory reserve capacity, while inhibition of FOXO with AS1842856 inhibits maximum OCR and respiratory reserve capacity (FIG. 18).

[4] = system: PSC-CMs; experiment: RNA expression of cardiac markers in PSC-CMs
Excerpt: as §1, §3

[5] = system: iPSC-CMs; experiment: Flow cytometry of marker expression in iPSC-CMs differentiated and treated in 3D culture
Excerpt: Nutlin-3a increases the percentage (FIG. 12A) and mean fluorescence intensity (MFI) (FIG. 12B) of TNNT2 in iPSC-CMs as well as the percentage (FIG. 12C) and MFI (FIG. 12D) of Kir2.1 in TNNT2+iPSC-CMs by flow cytometry. Nutlin-3a increases the percentage (FIG. 12E) and MFI (FIG. 12F) of p53 in TNNT2+iPSC-CMs. Nutlin-3a increases mean beat amplitude (FIG. 12G) and mean spike amplitude (FIG. 12H) of iPSC-CMs as quantified using a multielectrode array. *p<0.05. **p<0.01. ***p<0.001. ****p<0.0001 by one-way ANOVA. iPSC-CMs differentiated and treated in 3D. […]
(§4) Kir2.1 is the ion channel largely responsible for maintaining the resting membrane potential via the inward rectifier current (IK1); at lower levels, abnormal membrane depolarization can increase the risk of ventricular arrhythmias (8, 9). Nutlin-3a but not Torin1 treatment of iPSC-CMs increased expression of TNNT2 and Kir2.1 (FIG. 12A-12D). Also, Nutlin-3a but not Torin1 increased expression of p53, which may support induction of a quiescent state (FIG. 12E-12F).

[6] = system: iPSC-CMs; experiment: Multielectrode array (Axion Maestro Edge) of iPSC-CMs in 3D culture; settings: iPSC-CMs differentiated and treated in 3D
Excerpt: Nutlin-3a increases the percentage (FIG. 12A) and mean fluorescence intensity (MFI) (FIG. 12B) of TNNT2 in iPSC-CMs as well as the percentage (FIG. 12C) and MFI (FIG. 12D) of Kir2.1 in TNNT2+iPSC-CMs by flow cytometry. Nutlin-3a increases the percentage (FIG. 12E) and MFI (FIG. 12F) of p53 in TNNT2+iPSC-CMs. Nutlin-3a increases mean beat amplitude (FIG. 12G) and mean spike amplitude (FIG. 12H) of iPSC-CMs as quantified using a multielectrode array. *p<0.05. **p<0.01. ***p<0.001. ****p<0.0001 by one-way ANOVA. iPSC-CMs differentiated and treated in 3D.
as §4

[7] = system: iPSC-CMs; experiment: Resting membrane potential of iPSC-CMs in 2D culture; settings: Torin1 200 nM, compared to control (DMSO)
Excerpt: Pluripotent stem cell-derived cardiomyocytes (PSC-CMs) offer a regenerative approach to treat patients with systolic heart failure. However, delivery of immature PSC-CMs may increase the risk of ventricular arrhythmias, which is a barrier to clinical translation (1, 2). It was recently identified that inhibition of the mechanistic target of rapamycin (mTOR) pathway improves maturation of cardiomyocytes derived from induced pluripotent stem cells (iPSCs) in two-dimensional (2D) culture (3). […] This could greatly simplify the manufacturing process compared to other protocols that take 2 months to produce mature PSC-CMs with similar resting membrane potentials (4).

Row | SMILES | protein expression of TNNI3 [1] | protein expression of TNNT2 [1] | contractility [2] | maximum oxygen consumption rate (OCR) [3] | respiratory reserve capacity [3] | mean beat amplitude by multielectrode array analysis ([2]; 3D suspension culture) | mean fluorescence intensity (MFI) of Kir2.1 ([5]; flow cytometry) | mean fluorescence intensity (MFI) of p53 ([5]; flow cytometry) | percentage of Kir2.1 in TNNT2+ iPSC-CMs ([5]; flow cytometry) | percentage of TNNT2 in iPSC-CMs (% TNNT2+) ([5]; flow cytometry) | percentage of p53 in TNNT2+ iPSC-CMs ([5]; flow cytometry) | expression of Kir2.1 ([5]; iPSC-CMs) | expression of p53 ([5]; iPSC-CMs) | further results
1 | CCn1cc(C(=O)O)c(=O)c2c(N)c(F)c(NC3CCCCC3)cc21 [AS1842856] | decreases | decreases | poorly contractile cells | inhibits | inhibits | – | – | – | – | – | – | – | – | beating of spheroids ([2]; 3D suspension culture): non-beating spheroids; cardiac marker RNA levels [4]: reduce
2 | CN(C)c1nsc2c1C(=O)c1ccccc1C2=O [LOM612] | increases | increases | enhances | increases | increases | increases | – | – | – | – | – | – | – | protein expression of Kir2.1 ([1]; PSC-CMs): enhances; upstroke velocity (spike slope) ([2]; FOXO activation, PSC-CMs): increases
3 | COc1ccc(C2=N[C@@H](c3ccc(Cl)cc3)[C@@H](c3ccc(Cl)cc3)N2C(=O)N2CCNC(=O)C2)c(OC(C)C)c1 [Nutlin-3a, nutlin-3a] | – | – | – | – | – | – | increases | increases | increases | increases | increases | increased | increased | mean fluorescence intensity (MFI) of TNNT2 ([5]; flow cytometry): increases; expression of TNNT2 ([5]; iPSC-CMs): increased; mean beat amplitude [6]: increases; mean spike amplitude [6]: increases
4 | O=c1c(O)c(-c2ccc(O)c(O)c2)oc2cc(O)cc(O)c12 [Quercetin, quercetin] | – | – | – | – | – | – | increases | increases | increases | – | increases | increased | increased | –
5 | N#Cc1c(-c2cccs2)cc(-c2cccs2)nc1SCC(=O)c1cccs1 [RCM1] | increases | increases | – | increases | increases | increases | increases | – | increases | increases | – | increased | – | purity of iPSC-CMs [5]: increased
6 | CCC(=O)N1CCN(c2ccc(-n3c(=O)ccc4cnc5ccc(-c6cnc7ccccc7c6)cc5c43)cc2C(F)(F)F)CC1 [Torin1] | – | – | – | – | – | – | – | – | – | – | – | – | – | resting membrane potential [7]: decreased

Source: patent US20250297224A1, “CARDIOMYOCYTES AND COMPOSITIONS AND METHODS FOR PRODUCING THE SAME” (President and Fellows of Harvard College, priority 2021, published 2025)
